Measured values reported in the supplement of paper PMC10307832.

Legend:
Experiment in all cases: relative viability (nuclei count vs DMSO), 5 days (fraction); higher = more cells survive
[1] = compound: C[C@@H](N)c1ccc(C(=O)Nc2ccnc3[nH]ccc23)cc1 + CC(=O)c1c(C)c2cnc(Nc3ccc(N4CCNCC4)cn3)nc2n(C2CCCC2)c1=O [Palbociclib] (partner 0.5 µM)
Summary of the method: (§1)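 Each reported value is a median over duplicate plates. It expresses relative viability: treated-well nuclei count divided by vehicle-well nuclei count. Lung cancer cell lines in 1536-well plates were dosed by pin tool a day after seeding, alone with one drug or with a fixed anchor-drug dose plus five library-drug doses (not always all listed) in √10 steps, and nuclei were counted after 5 days.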

[2] = compound: C[C@@H](N)c1ccc(C(=O)Nc2ccnc3[nH]ccc23)cc1 + O=C(CCCCCCC(=O)Nc1ccccc1)NO [Vorinostat] (partner 1 µM)
Summary of the method: as §1

[3] = compound: C[C@@H](N)c1ccc(C(=O)Nc2ccnc3[nH]ccc23)cc1 + C[C@]1(O)C[C@@H](c2nc(-c3ccc4ccc(-c5ccccc5)nc4c3)c3c(N)nccn32)C1 [Linsitinib] (partner 1 µM)
Summary of the method: as §1

Tanzisertib + Linsitinib = compound: O[C@H]1CC[C@H](Nc2ncc3nc(Nc4c(F)cc(F)cc4F)n([C@H]4CCOC4)c3n2)CC1 [Tanzisertib] + C[C@]1(O)C[C@@H](c2nc(-c3ccc4ccc(-c5ccccc5)nc4c3)c3c(N)nccn32)C1 [Linsitinib] (partner 1 µM)
Summary of the method: as §1

Cell Line | relative viability ([1]; first compound 0.04 µM) | relative viability ([1]; first compound 0.1265 µM) | relative viability ([1]; first compound 0.4 µM) | relative viability ([1]; first compound 1.265 µM) | relative viability ([1]; first compound 4 µM) | relative viability ([2]; first compound 0.04 µM) | relative viability ([2]; first compound 0.1265 µM) | relative viability ([2]; first compound 0.4 µM) | relative viability ([2]; first compound 1.265 µM) | relative viability ([2]; first compound 4 µM) | relative viability ([3]; first compound 0.04 µM) | relative viability ([3]; first compound 0.1265 µM) | relative viability ([3]; first compound 0.4 µM) | relative viability ([3]; first compound 1.265 µM) | relative viability ([3]; first compound 4 µM) | relative viability (Tanzisertib + Linsitinib; first compound 0.08 µM) | relative viability (Tanzisertib + Linsitinib; first compound 0.253 µM) | relative viability (Tanzisertib + Linsitinib; first compound 0.8 µM) | relative viability (Tanzisertib + Linsitinib; first compound 2.53 µM) | relative viability (Tanzisertib + Linsitinib; first compound 8 µM)
NCI-H1975 | 0.808 | 0.673 | 0.607 | 0.2 | 0.321 | 0.734 | 0.649 | 0.667 | 0.609 | 0.584 | 1.01 | 0.915 | 0.964 | 0.778 | 0.619 | 1.1 | 0.979 | 0.993 | 1.07 | 0.873
RERF-LC-KJ | 1.05 | 1.12 | 1.22 | 1.23 | 0.943 | 0.737 | 0.736 | 0.838 | 0.652 | 0.74 | 0.896 | 0.871 | 0.998 | 0.944 | 0.861 | 0.942 | 0.834 | 0.971 | 0.862 | 0.877
NCI-H441 | 0.233 | 0.265 | 0.25 | 0.237 | 0.263 | 0.946 | 0.827 | 1.03 | 0.739 | 0.835 | 0.626 | 0.571 | 0.64 | 0.483 | 0.45 | 0.626 | 0.607 | 0.634 | 0.553 | 0.454
LCLC-103H | 0.473 | 0.478 | 0.433 | 0.423 | 0.388 | 0.714 | 0.634 | 0.787 | 0.466 | 0.608 | 1.18 | 1.06 | 1.2 | 1.01 | 1.11 | 0.928 | 0.994 | 0.917 | 1.06 | 1.11
HCC-78 | 0.456 | 0.45 | 0.544 | – | 0.482 | 0.533 | 0.425 | 0.622 | 0.706 | 0.618 | 0.776 | 0.518 | 0.804 | 0.735 | 0.424 | 0.478 | 0.524 | 0.528 | 0.367 | 0.529
NCI-H1915 | – | 0.504 | 0.52 | – | 0.431 | – | 0.546 | 0.547 | – | 0.462 | 1.1 | 1.13 | 1.12 | – | 1.03 | 1.07 | 1.14 | 1.08 | 1.01 | 1.11
